Activity calls are given as the source filed them. No cut-off for these calls is given here.
Experiments:
[1] = system: Escherichia coli; assay: Antibacterial activity against Escherichia coli CMCC 44103 assessed as inhibition of bacterial growth incubated for 24 hrs by broth microdilution method; format: functional
[2] = system: Staphylococcus aureus; assay: Antibacterial activity against methicillin-resistant Staphylococcus aureus 596 assessed as inhibition of bacterial growth incubated for 24 hrs by broth microdilution method; format: functional
[3] = system: Cell membrane; assay: Disruption of bacterial cell membrane in Escherichia coli ATCC 25922 assessed as increase in red fluorescence intensity at 4XMIC incubated for 2 hrs by MycoLightGreen1198/PI staining based confocal laser scanning microscopy
[4] = Half-life in Sprague-Dawley rat at 1 mg/kg, iv by LC-MS analysis; format: ADME, organism-based; settings: in vivo
[5] = system: Staphylococcus aureus; assay: Antibacterial activity against […] assessed as inhibition of bacterial growth incubated for 24 hrs by broth microdilution method; format: functional; settings: ATCC 29213
[6] = system: Staphylococcus aureus; assay: Antibacterial activity against methicillin-resistant Staphylococcus aureus ATCC 33591 assessed as inhibition of bacterial growth incubated for 24 hrs by broth microdilution method; format: functional
[7] = system: Staphylococcus aureus; assay: Antibacterial activity against methicillin-resistant Staphylococcus aureus 206 assessed as inhibition of bacterial growth incubated for 24 hrs by broth microdilution method; format: functional
[8] = system: Mesomycoplasma hyopneumoniae; assay: Anti-mycoplasma activity against Mycoplasma hyopneumoniae LH assessed as inhibition of mycoplasma growth measured after 7 days by broth microdilution method; format: functional; settings: 168 h, time 7 day
[9] = system: Staphylococcus aureus; assay: Disruption of biofilm formation in methicillin-resistant Staphylococcus aureus ATCC 33591 assessed as inhibition of biofilm formation at MIC measured after 24 hrs by crystal violet staining based analysis; format: functional
[10] = system: Mesomycoplasma hyorhinis; assay: Anti-mycoplasma activity against Mycoplasma hyorhinis BTS-7 NCTC10130 assessed as inhibition of mycoplasma growth measured after 7 days by broth microdilution method; format: functional; settings: BTS-7 NCTC10130, 168 h, time 7 day
[11] = system: Cell membrane; assay: Disruption of bacterial cell membrane in Escherichia coli ATCC 25922 assessed as reduction in green fluorescence intensity at MIC incubated for 2 hrs by MycoLightGreen1198/PI staining based confocal laser scanning microscopy
[12] = system: Salmonella enterica; assay: Antibacterial activity against Salmonella enterica ATCC 14028 assessed as inhibition of bacterial growth incubated for 24 hrs by broth microdilution method; format: functional
[13] = system: Staphylococcus aureus; assay: Antibacterial activity against methicillin-resistant Staphylococcus aureus 222 assessed as inhibition of bacterial growth incubated for 24 hrs by broth microdilution method; format: functional
[14] = Cytotoxicity against human HEK293 cells assessed as reduction in cell viability measured after 48 hrs by CCK8 assay; format: toxicity, cell-based
[15] = Aqueous solubility of the compound in physiological saline measured after 12 hrs by UV spectrophotometric analysis; format: physicochemical
[16] = system: Cell membrane; assay: Disruption of bacterial cell membrane in Escherichia coli ATCC 25922 incubated for 4 hrs by FESEM analysis; format: subcellular
[17] = Cmax in Sprague-Dawley rat at 1 mg/kg, iv by LC-MS analysis; format: ADME, organism-based; design: dose 1 mg/kg, route iv; settings: in vivo
[18] = system: Staphylococcus aureus; assay: Antibacterial activity against methicillin-resistant Staphylococcus aureus ATCC 33591 infected in Kunming mouse assessed as reduction in bacterial load in liver at 5 to 10 mg/kg, ip for 2 days starting from 1 hr post-infection by hematoxylin-eosin staining based analysis; format: functional, organism-based; settings: dose 5-10 mg/kg, time 2.0 day
[19] = system: Staphylococcus aureus; assay: Antibacterial activity against methicillin-resistant Staphylococcus aureus ATCC 43300 assessed as inhibition of bacterial growth incubated for 24 hrs by broth microdilution method; format: functional
[20] = system: Cell membrane; assay: Disruption of bacterial cell membrane in Escherichia coli ATCC 25922 assessed as increase in red fluorescence intensity at MIC incubated for 2 hrs by MycoLightGreen1198/PI staining based confocal laser scanning microscopy
[21] = system: Cell membrane; assay: Disruption of bacterial cell membrane in methicillin-resistant Staphylococcus aureus ATCC 33591 incubated for 4 hrs by FESEM analysis; format: subcellular
[22] = Metabolic stability in Sprague-Dawley rat assessed as parent compound remaining at 3 mg/kg, po measured after 10 mins by LC-MS analysis; format: ADME, organism-based; settings: in vivo, read-out: Stability
[23] = system: Staphylococcus aureus; assay: Antibacterial activity against methicillin-resistant Staphylococcus aureus 171 assessed as inhibition of bacterial growth incubated for 24 hrs by broth microdilution method; format: functional
[24] = system: Staphylococcus aureus; assay: Antibacterial activity against methicillin-resistant Staphylococcus aureus ATCC 33591 infected in Kunming mouse assessed as reduction in inflammatory cell infiltration in lungs at 3 to 10 mg/kg, ip for 2 days starting from 1 hr post-infection by hematoxylin-eosin staining based analysis; format: functional, organism-based; settings: dose 3-10 mg/kg, time 2.0 day
[25] = system: Staphylococcus aureus; assay: Potency index, ratio of moxifloxacin MIC to test compound MIC for antibacterial activity against methicillin-resistant Staphylococcus aureus 171; format: functional
[26] = system: Cell membrane; assay: Disruption of bacterial cell membrane in methicillin-resistant Staphylococcus aureus ATCC 33591 assessed as increase in red fluorescence intensity at 4XMIC incubated for 2 hrs by MycoLightGreen1198/PI staining based confocal laser scanning microscopy; format: subcellular
[27] = system: Staphylococcus epidermidis; assay: Antibacterial activity against methicillin-resistant Staphylococcus epidermidis ATCC 51625 assessed as inhibition of bacterial growth incubated for 24 hrs by broth microdilution method; format: functional
[28] = system: Klebsiella pneumoniae; assay: Antibacterial activity against multidrug-resistant Klebsiella pneumoniae 893 assessed as inhibition of bacterial growth incubated for 24 hrs by broth microdilution method; format: functional
[29] = system: Staphylococcus aureus; assay: Bactericidal activity against methicillin-resistant Staphylococcus aureus ATCC 33591 assessed as reduction in bacterial colonies formation at MIC incubated for 24 hrs in MHB followed by culturing on agar plate for 24 hrs by time-kill kinetics based analysis; format: functional; settings: time 48 hrs
[30] = system: Escherichia coli; assay: Bactericidal activity against Escherichia coli ATCC 25922 assessed as reduction in bacterial colonies formation at MIC incubated for 24 hrs in MHB followed by culturing on agar plate for 24 hrs by time-kill kinetics based analysis; format: functional; settings: time 48 hrs
[31] = Cytotoxicity against human A549 cells assessed as reduction in cell viability measured after 48 hrs by CCK8 assay; format: toxicity, cell-based
[32] = system: Mycoplasmopsis synoviae; assay: Anti-mycoplasma activity against Mycoplasma synoviae WVU1853 NCTC10124 assessed as inhibition of mycoplasma growth measured after 7 days by broth microdilution method; format: functional; settings: WVU1853 NCTC10124, 168 h, time 7 day
[33] = system: Mycoplasma genitalium; assay: Anti-mycoplasma activity against Mycoplasma genitalium G37 ATCC33530 assessed as inhibition of mycoplasma growth measured after 7 days by broth microdilution method; format: functional; settings: Mycoplasmoides genitalium, G37 ATCC33530, 168 h; time 7 day
[34] = Cytotoxicity against human HepG2 cells assessed as reduction in cell viability measured after 48 hrs by CCK8 assay; format: toxicity, cell-based
[35] = system: Staphylococcus aureus; assay: Antibacterial activity against methicillin-resistant Staphylococcus aureus ATCC 33591 infected in ip dosed Kunming mouse assessed as protection against bacterial infection administered for 7 days starting from 1 hr post-infection; format: functional
[36] = Volume of distribution at steady state in Sprague-Dawley rat at 1 mg/kg, iv by LC-MS analysis; format: ADME, organism-based; settings: in vivo, read-out: Vdss
[37] = system: Metamycoplasma hominis; assay: Anti-mycoplasma activity against Mycoplasma hominis PG-21 ATCC23114 assessed as inhibition of mycoplasma growth measured after 7 days by broth microdilution method; format: functional; settings: PG-21 ATCC23114, 168 h, time 7 day

## C=C[C@]1(C)C[C@@H](OC(=O)CSc2nc(-c3cc[n+](Cc4ccc(C)cc4)cc3)cs2)[C@]2(C)[C@H](C)CC[C@]3(CCC(=O)[C@H]32)[C@@H](C)[C@@H]1O.[Br-]
[1]
  MIC: 0.5 µg/mL
[2]
  MIC: 2 µg/mL
[3]
  Activity: 100%
[4]
  half-life: 43.8 min
[5]
  MIC: 0.062 µg/mL
[6]
  MIC: 1 µg/mL
[7]
  MIC: 2 µg/mL
[8]
  MIC: 0.002 µg/mL
[9]
  inhibition (INH): 57.97%
[10]
  MIC: 0.008 µg/mL
[11]
  Activity: Active
[12]
  MIC: 2 µg/mL
[13]
  MIC: 1 µg/mL
[14]
  CC50 at 48 h: > 100 µM
[15]
  solubility at 12 h: 862 µM
[16]
  Activity: Dose-Dependent Effect
[17]
  Cmax: 9670 ng/mL
[18]
  Activity: Active
[19]
  MIC: 0.5 µg/mL
[20]
  Activity: Active
[21]
  Activity: Dose-Dependent Effect
[22]
  remaining at 10 min: 0%
[23]
  MIC: 4 µg/mL
[24]
  Activity: Active
[25]
  Ratio: 8
[26]
  Activity: 100%
[27]
  MIC: 1 µg/mL
[28]
  MIC: 16 µg/mL
[29]
  Activity: 4.5 log10CFU/ml
[30]
  Activity: 6.98 log10CFU/ml
[31]
  CC50 at 48 h: > 100 µM
[32]
  MIC: 0.015 µg/mL
[33]
  MIC: 0.015 µg/mL
[34]
  CC50 at 48 h: 89.8 µM
[35]; ATCC 33591, 168 h, time 7 day
  ED50: 4.94 mg/kg
[35]; time 7.0 day
  Activity: Dose-Dependent Effect
[36]
  Vd: 2.1 L/kg
[37]
  MIC: 0.015 µg/mL

Source: ChEMBL document CHEMBL5338747, “Discovery of Quaternized Pyridine-Thiazole-Pleuromutilin Derivatives with Broad-Spectrum Antibacterial and Potent Anti-MRSA Activity” (J Med Chem, 2023)
